Measurements from ChEMBL document CHEMBL1201862, “PubChem BioAssay data set” (2004).
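How tested: cells in 96-well plates exposed to compound for 48 hours at five concentrations. GI50 is the concentration that inhibits growth by half.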 Activity calls are given as the source filed them. Cut-off read from the data, not from the text of the source: active = GI50 up to about 1.1 µM and inactive = higher.

Legend:
Test in all cases: NCI tumour cell line growth inhibition, 48 h
U-251 = system: U-251
SNB-75 = system: SNB-75
NCI-H23 = system: NCI-H23
SK-MEL-2 = system: SK-MEL-2
SF-539 = system: SF-539
UO-31 = system: UO-31
KM12 = system: KM12
SN12C = system: SN12C
A549 = system: A549
HCT-15 = system: HCT-15
SR = system: SR
LOX IMVI = system: LOX IMVI
A498 = system: A498
OVCAR-4 = system: OVCAR-4
SNB-19 = system: SNB-19
SK-OV-3 = system: SK-OV-3

O=C(c1ccccc1)[C@H]1Nc2ccc(Cl)cc2[C@H]2c3ccccc3O[C@H]21
GI50 (U-251): 15.6 µM (inactive)
GI50 (SNB-75): 12.4 µM (inactive)
GI50 (NCI-H23): 14.2 µM (inactive)
GI50 (SK-MEL-2): 13.5 µM (inactive)
GI50 (SF-539): 15 µM (inactive)
GI50 (UO-31): 5.27 µM (inactive)
GI50 (KM12): 16.1 µM (inactive)
GI50 (SN12C): 14.1 µM (inactive)
GI50 (A549): 14.6 µM (inactive)
GI50 (HCT-15): 14.4 µM
GI50 (SR): 16.5 µM (inactive)
GI50 (LOX IMVI): 20.7 µM (inactive)
GI50 (A498): 12.1 µM (inactive)
GI50 (OVCAR-4): 18.2 µM (inactive)
GI50 (SNB-19): 15.7 µM (inactive)

Nc1cccc2c1-c1c(cccc1[N+](=O)[O-])C2=O
GI50 (U-251): > 100 µM (inactive)
GI50 (SNB-75): > 100 µM (inactive)
GI50 (NCI-H23): > 100 µM (inactive)
GI50 (SF-539): > 100 µM (inactive)
GI50 (UO-31): 0.108 µM (active)
GI50 (KM12): > 100 µM (inactive)
GI50 (SN12C): > 100 µM (inactive)
GI50 (A549): > 100 µM (inactive)
GI50 (HCT-15): > 100 µM
GI50 (SR): > 100 µM (inactive)
GI50 (LOX IMVI): > 100 µM (inactive)
GI50 (SK-OV-3): > 100 µM (inactive)
GI50 (A498): > 100 µM (inactive)
GI50 (OVCAR-4): > 100 µM (inactive)
GI50 (SNB-19): > 100 µM (inactive)

CC(C)/C=C1\CCC(CN2CCCC2)C1=O (configuration not stated)
GI50 (U-251): 14.6 µM (inactive)
GI50 (NCI-H23): 16.7 µM (inactive)
GI50 (SK-MEL-2): 20.7 µM (inactive)
GI50 (SF-539): 18.7 µM (inactive)
GI50 (UO-31): 18.5 µM (inactive)
GI50 (KM12): 10 µM (inactive)
GI50 (SN12C): 18.7 µM (inactive)
GI50 (A549): 13.8 µM (inactive)
GI50 (HCT-15): 5.05 µM
GI50 (SR): 2.82 µM (inactive)
GI50 (LOX IMVI): 19.9 µM (inactive)
GI50 (SK-OV-3): > 100 µM (inactive)
GI50 (A498): > 42.3 µM (inactive)
GI50 (OVCAR-4): 17.6 µM (inactive)
GI50 (SNB-19): > 41.6 µM (inactive)

O=C1C2C(C(=O)N1Cc1ccccc1)N(Cc1ccccc1)C(=O)N2Cc1ccccc1 (configuration not stated)
GI50 (U-251): > 100 µM (inactive)
GI50 (SNB-75): 59.3 µM (inactive)
GI50 (NCI-H23): > 100 µM (inactive)
GI50 (SF-539): > 100 µM (inactive)
GI50 (UO-31): > 100 µM (inactive)
GI50 (KM12): > 100 µM (inactive)
GI50 (SN12C): > 100 µM (inactive)
GI50 (A549): > 100 µM (inactive)
GI50 (HCT-15): > 100 µM
GI50 (SR): > 100 µM (inactive)
GI50 (LOX IMVI): > 100 µM (inactive)
GI50 (SK-OV-3): > 100 µM (inactive)
GI50 (A498): > 100 µM (inactive)
GI50 (OVCAR-4): > 100 µM (inactive)
GI50 (SNB-19): > 100 µM (inactive)

COc1ccc(C2(CN(C)C)COc3cc(OC)c(OC)cc3C2=O)cc1OC (configuration not stated)
GI50 (U-251): 45.9 µM (inactive)
GI50 (SNB-75): 47 µM (inactive)
GI50 (NCI-H23): 32.7 µM (inactive)
GI50 (SF-539): 39.9 µM (inactive)
GI50 (UO-31): 44.8 µM (inactive)
GI50 (KM12): 61.5 µM (inactive)
GI50 (SN12C): 77.1 µM (inactive)
GI50 (A549): 69.8 µM (inactive)
GI50 (SR): 30.6 µM (inactive)
GI50 (LOX IMVI): 16.6 µM (inactive)
GI50 (SK-OV-3): > 100 µM (inactive)
GI50 (A498): 74.8 µM (inactive)
GI50 (OVCAR-4): 34.6 µM (inactive)
GI50 (SNB-19): > 100 µM (inactive)

CCOc1cn(C2OC(CO)C(O)C2O)c(=O)[nH]c1=O (configuration not stated)
GI50 (U-251): 20.3 µM (inactive)
GI50 (SNB-75): > 100 µM (inactive)
GI50 (NCI-H23): > 100 µM (inactive)
GI50 (SK-MEL-2): > 100 µM (inactive)
GI50 (UO-31): > 100 µM (inactive)
GI50 (KM12): > 100 µM (inactive)
GI50 (SN12C): > 100 µM (inactive)
GI50 (A549): > 100 µM (inactive)
GI50 (HCT-15): > 100 µM
GI50 (LOX IMVI): > 100 µM (inactive)
GI50 (SK-OV-3): > 100 µM (inactive)
GI50 (A498): > 100 µM (inactive)
GI50 (SNB-19): > 100 µM (inactive)

CCCCC1(C(NC(=O)c2ccccc2Cl)c2ccncc2)C(=O)N(c2ccccc2)N(c2ccccc2)C1=O (configuration not stated)
GI50 (U-251): 34 µM (inactive)
GI50 (SNB-75): 12.4 µM (inactive)
GI50 (NCI-H23): 44.7 µM (inactive)
GI50 (SK-MEL-2): 50.9 µM (inactive)
GI50 (SF-539): 88.1 µM (inactive)
GI50 (UO-31): 33 µM (inactive)
GI50 (KM12): 81.3 µM (inactive)
GI50 (SN12C): 94.4 µM (inactive)
GI50 (A549): 28.4 µM (inactive)
GI50 (HCT-15): 38.5 µM
GI50 (SR): 55.1 µM (inactive)
GI50 (LOX IMVI): 56.9 µM (inactive)
GI50 (SK-OV-3): 74.1 µM (inactive)
GI50 (SNB-19): 77.6 µM (inactive)

Cc1cc2c(CC(=O)O)n[nH]c2c(C(=O)O)c1C
GI50 (U-251): > 100 µM (inactive)
GI50 (SNB-75): > 100 µM (inactive)
GI50 (NCI-H23): > 100 µM (inactive)
GI50 (SK-MEL-2): > 100 µM (inactive)
GI50 (SF-539): > 100 µM (inactive)
GI50 (UO-31): > 100 µM (inactive)
GI50 (SN12C): > 100 µM (inactive)
GI50 (A549): > 100 µM (inactive)
GI50 (HCT-15): > 100 µM
GI50 (SR): > 100 µM (inactive)
GI50 (LOX IMVI): > 100 µM (inactive)
GI50 (SK-OV-3): > 100 µM (inactive)
GI50 (SNB-19): > 100 µM (inactive)

O=c1/c(=C/c2ccc(Cl)cc2Cl)sc2nc3ccccc3n12
GI50 (U-251): > 100 µM (inactive)
GI50 (SNB-75): > 100 µM (inactive)
GI50 (NCI-H23): > 100 µM (inactive)
GI50 (SK-MEL-2): > 100 µM (inactive)
GI50 (SF-539): > 100 µM (inactive)
GI50 (UO-31): > 100 µM (inactive)
GI50 (KM12): > 100 µM (inactive)
GI50 (SN12C): > 100 µM (inactive)
GI50 (A549): > 100 µM (inactive)
GI50 (HCT-15): > 100 µM
GI50 (LOX IMVI): > 100 µM (inactive)
GI50 (SK-OV-3): > 100 µM (inactive)
GI50 (A498): > 100 µM (inactive)
GI50 (OVCAR-4): > 100 µM (inactive)
GI50 (SNB-19): > 100 µM (inactive)

O=C1Sc2ccccc2C(=O)N2CSCC12 (configuration not stated)
GI50 (U-251): > 100 µM (inactive)
GI50 (SNB-75): > 100 µM (inactive)
GI50 (NCI-H23): > 100 µM (inactive)
GI50 (SK-MEL-2): > 100 µM (inactive)
GI50 (SF-539): > 100 µM (inactive)
GI50 (UO-31): > 100 µM (inactive)
GI50 (KM12): > 100 µM (inactive)
GI50 (SN12C): > 100 µM (inactive)
GI50 (A549): > 100 µM (inactive)
GI50 (SR): > 100 µM (inactive)
GI50 (LOX IMVI): > 100 µM (inactive)
GI50 (SK-OV-3): > 100 µM (inactive)
GI50 (SNB-19): > 100 µM (inactive)
